Experimental data taken from US10253081B2, “Glucagon analogues” (Zealand Pharma A/S, priority 2012, dated 2019).
pEC50: −log10 of the molar value. *1 amine or outer side, *2 acyl side, *3 side chain or, on linkers, in order; H or OH if unused. Where a SMILES comes first, the peptide text is derived from it. Side-chain parts run from the residue outwards. [ ]: non-standard residue; d: D form. The star is where a group is joined. γGlu = O=C(O)[C@H](CCC(=O)[*:2])N[*:1]; Palmitoyl = CCCCCCCCCCCCCCCC(=O)*; Aib = CC(C)(N)C(=O)O

Columns and labels:
Type in all cases: cell-based
[1] = target: T1, human glucagon-like peptide 1 receptor (GLP-1R) (Homo sapiens, UniProt P43220); test: GLP-1 receptor efficacy assay (cAMP AlphaScreen, CHO cells); conditions: Table 1B; for Ratio GLP-1/Glucagon: EC50 [GLP-1R]/EC50 [Glucagon-R]; for pEC50: same protocol, different laboratory, read-out: EC50 hGLP-1R CHO-K1
T1 construct: expressed in transfected cells
T1 sequence (P43220 24-463): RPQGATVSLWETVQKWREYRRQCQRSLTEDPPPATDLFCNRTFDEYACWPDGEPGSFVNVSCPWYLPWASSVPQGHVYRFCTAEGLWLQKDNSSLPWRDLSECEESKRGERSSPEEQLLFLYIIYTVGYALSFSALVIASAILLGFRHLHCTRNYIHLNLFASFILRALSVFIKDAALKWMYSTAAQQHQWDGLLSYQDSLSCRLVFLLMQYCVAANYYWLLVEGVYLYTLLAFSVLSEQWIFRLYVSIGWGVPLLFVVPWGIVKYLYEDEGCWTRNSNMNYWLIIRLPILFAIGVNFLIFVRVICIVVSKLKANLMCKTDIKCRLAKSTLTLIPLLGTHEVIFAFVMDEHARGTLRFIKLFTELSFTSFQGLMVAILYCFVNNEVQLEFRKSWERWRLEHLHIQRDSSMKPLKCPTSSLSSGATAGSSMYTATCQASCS
From the text: (§1) The cDNA encoding either the human glucagon receptor (Glucagon-R) (primary accession number P47871) or the human glucagon-like peptide 1 receptor (GLP-1R) (primary accession number P43220) were synthesized and cloned into a mammalian expression vector containing a Zeocin resistance marker.
(§2) The mammalian expression vectors encoding the Glucagon-R or the GLP-1-R were transfected into Chinese hamster ovary (CHO) cells by the Attractene method method. Stably expressing clones were obtained by Zeocin selection (250 μg/mL) upon limited dilution of cells resistant to the selection pressure. Glucagon-R and GLP-1-R cell clones expressing were picked, propagated and tested in the Glucagon-R and GLP-1-R efficacy assays as described below. One Glucagon-R expressing clone and one GLP-1-R expressing clone were chosen for compound profiling.
(§3) CHO cells expressing the human Glucagon-R, or human GLP-1-R were seeded 24 hours prior to the assay at 30,000 cells per well in 96-well microtiter plates in culture in 100 μl growth medium. On the day of analysis, growth medium was removed and the cells were washed once with 200 μl of assay buffer (Krebs-Ringer-buffer—KRBH). The buffer was removed and the cells were incubated for 15 min at room temperature in 10 μl KRBH (KRBH+10 mM HEPES, 5 mM NaHCO3, 0.1% (V/V) BSA) with 0.1 mM IBMX in deionized water containing increasing concentrations of test peptides. The reaction was stopped by the addition of lysis buffer (0.1% w/v BSA, 5 mM HEPES, 0.3% v/v Tween-20). After cell lysis for 10 min at room temperature, lysates were transferred to 384-well plates and 10 μl of acceptor/donorbead mixture as contained in the AlphaScreen™ cAMP Functional Assay Kit was added. After one hour of incubation at room temperature in the dark, the cAMP content was determined applying the AlphaScreen™ cAMP Functional Assay Kit from Perkin-Elmer according to manufacturer instructions. EC50 and relative efficacies compared to reference compounds (glucagon and GLP-1) were calculated applying computer aided curve fitting. The GLP-1/glucagon ratio is calculated as defined earlier.

[2] = target: T2, endogenous glucagon receptor (Rattus norvegicus, UniProt P30082); test: Agonistic activity on endogenous glucagon receptor (glycogen synthesis rate in primary rat hepatocytes); conditions: inhibition of glycogen synthesis rate, 3 hours, read-out: EC50 GLP-1R Rat hepat.
T2 construct: Agonistic activity of the test compounds on endogenous glucagon receptor; endogenous in cells; host or cells: primary rat hepatocytes
T2 sequence (P30082 27-485): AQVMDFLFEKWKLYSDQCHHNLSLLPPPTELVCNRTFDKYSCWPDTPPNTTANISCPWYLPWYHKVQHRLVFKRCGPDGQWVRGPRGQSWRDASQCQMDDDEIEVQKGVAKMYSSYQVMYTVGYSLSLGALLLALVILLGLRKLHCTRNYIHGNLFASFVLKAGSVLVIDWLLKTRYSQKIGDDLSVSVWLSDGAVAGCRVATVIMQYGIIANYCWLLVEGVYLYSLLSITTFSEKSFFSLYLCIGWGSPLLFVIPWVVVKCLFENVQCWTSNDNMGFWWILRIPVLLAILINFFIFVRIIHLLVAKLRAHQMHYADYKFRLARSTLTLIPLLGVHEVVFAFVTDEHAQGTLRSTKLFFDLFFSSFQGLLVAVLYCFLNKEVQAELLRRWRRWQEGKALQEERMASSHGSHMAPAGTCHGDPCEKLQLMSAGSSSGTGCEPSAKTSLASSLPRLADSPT
Procedure: Agonistic activity of the test compounds on endogenous glucagon receptor was determined by measuring their effect on rate of glycogen synthesis in primary rat hepatocytes. Upon activation of the glucagon receptor, an inhibition of the glycogen synthesis rate is expected. Rate of glycogen synthesis was determined by counting the amount of radioactively labeled glucose incorporated into the cellular glycogen stores in a defined period of time.
Primary rat hepatocytes were cultured at a density of 40,000 cells/well in a 24-well plate for 24 hours at 37° C. and 5% CO2.
Medium was discarded and the cells washed with PBS. 180 μL of KRBH-based buffer containing 0.1% BSA and glucose at a concentration of 22.5 mM was then added to the wells, followed by test compound and 40 μCi/ml D-[U14C] glucose (20 μL each). Incubation was continued for 3 hours.
At the end of the incubation period, the incubation buffer was aspirated and cells washed once with ice-cold PBS before lysis by incubation for 30 min at room temperature with 100 μL 1 mol/l NaOH.
Cell lysates were transferred to 96-well filter plates and glycogen precipitated by incubating the filter-plates for 120 min at 4° C. followed by washing the filter plates 4 times with ice-cold ethanol (70%). The resulting precipitates were filtered to dryness and the amount of incorporated ^14C-glucose determined by using a Topcount scintillation counter according to manufacturer's recommendations.
Wells with vehicle controls (0.1% (v/v) DMSO in KRBH buffer) were included as reference for non-inhibited glycogen synthesis (100% CTL). Wells without added D-[U^14C] glucose were included as controls for non-specific background signal (subtracted from all values). Endogenous glucagon peptide was used as a positive control.
All treatments were performed at least in triplicates.
Parameters calculated to describe the both the potency as well as the agonistic activity of each test compound on the endogenous glucagon receptor are pEC50 and % CTL. % CTL is determined by calculating the percentage of CPM/well in the presence of the test compound compared to the CPM/well of the vehicle control after subtracting the background CPM/well: [CPM/well(basal)−CPM/well(sample)]*100/[CPM/well(basal)−CPM/well(control)]
An activator of the glucagon receptor will result in an inhibition of the glycogen synthesis rate and will give % CTL values between 0% CTL (complete inhibition) and 100% CTL (no observable inhibition).
The resulting activity curves were plotted as absolute counts (unit: cpm/sample) over log (test compound concentration) and analyzed using the curve fitting program XLfit.
pEC50 (negative logarithmic value of EC50) reflects the potency of the test compound.
The terms EC50 and pEC50 quoted in relation to GLP-1R activation could equally be regarded as IC50 and pIC50 in relation to glycogen synthesis.

[3] = target: T3, human glucagon receptor (Glucagon-R) (Homo sapiens, UniProt P47871); test: Glucagon receptor efficacy assay (cAMP AlphaScreen, CHO cells); conditions: Table 1B; same protocol, different laboratory; read-out: EC50 hGCGR CHO-K1
T3 construct: expressed in transfected cells
T3 sequence (P47871 26-477): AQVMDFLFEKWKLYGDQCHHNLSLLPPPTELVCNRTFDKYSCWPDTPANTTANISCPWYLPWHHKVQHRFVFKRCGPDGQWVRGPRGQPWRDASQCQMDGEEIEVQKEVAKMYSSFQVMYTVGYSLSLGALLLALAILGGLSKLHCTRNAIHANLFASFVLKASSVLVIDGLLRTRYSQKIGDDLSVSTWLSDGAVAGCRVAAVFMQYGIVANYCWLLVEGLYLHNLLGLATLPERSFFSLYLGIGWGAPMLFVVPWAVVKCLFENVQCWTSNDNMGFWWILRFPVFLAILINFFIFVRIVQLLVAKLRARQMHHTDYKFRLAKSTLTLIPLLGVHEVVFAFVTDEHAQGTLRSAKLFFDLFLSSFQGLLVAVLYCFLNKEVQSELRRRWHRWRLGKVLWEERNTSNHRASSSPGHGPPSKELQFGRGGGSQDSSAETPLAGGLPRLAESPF
From the text: as §1, §2, §3

[4] = target: T4, endogenous GLP-1 receptors (Mus musculus, UniProt O35659); test: Agonistic activity on endogenous GLP-1 receptor (cAMP, murine insulinoma cell line); conditions: intracellular cAMP, 15 minutes at 26° C.; read-out: EC50 GLP-1R (murine insulinoma cells)
T4 construct: Agonistic activity of the test compounds on endogenous GLP-1 receptors; endogenous in cells
T4 sequence (O35659 22-463): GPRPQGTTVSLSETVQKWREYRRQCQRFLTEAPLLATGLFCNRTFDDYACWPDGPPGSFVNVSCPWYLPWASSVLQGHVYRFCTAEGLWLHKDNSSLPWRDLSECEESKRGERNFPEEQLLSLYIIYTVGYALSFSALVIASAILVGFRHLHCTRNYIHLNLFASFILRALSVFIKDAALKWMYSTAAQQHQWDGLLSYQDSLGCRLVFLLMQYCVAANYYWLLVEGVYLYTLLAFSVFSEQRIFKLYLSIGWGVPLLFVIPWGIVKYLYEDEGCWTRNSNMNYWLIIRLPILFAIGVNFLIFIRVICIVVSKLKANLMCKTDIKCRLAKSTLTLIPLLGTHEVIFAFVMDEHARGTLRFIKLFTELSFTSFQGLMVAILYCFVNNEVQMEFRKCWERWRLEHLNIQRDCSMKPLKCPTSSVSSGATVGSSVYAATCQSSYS
Procedure: Agonistic activity of the test compounds on endogenous GLP-1 receptors was determined using a murine insulinoma cell line. Intracellular cAMP was used an indicator of receptor activation.
Cells were cultured for 24 h at a density of 10,000 cells/well in a 384-well plate. Medium was removed and 10 μL KRBH buffer (NaCl 130 mM, KCl 3.6 mM, NaH2PO4 0.5 mM, MgSO4 0.5 mM, CaCl2) 1.5 mM) containing test compound or GLP-1 (at increasing concentrations from […] to 100 nM) or solvent control (0.1% (v/v) DMSO) was added to the wells for 15 minutes at a temperature of 26° C.
The cellular cAMP content is measured using the AlphaScreen cAMP Functional Assay Kit (Perkin Elmer). Measurement was performed using the Envision (PerkinElmer) according to manufacturer's recommendations.
All measurements were performed in quadruplicate.
Results were converted into cAMP concentrations using a cAMP standard curve prepared in KRBH buffer containing 0.1% (v/v) DMSO. The resulting cAMP curves were plotted as absolute cAMP concentrations (nM) over log (test compound concentration) and analyzed using the curve fitting program XLfit.
Parameters calculated to describe the both the potency as well as the agonistic activity of each test compound on the endogenous GLP-1 receptors were:
pEC50 (negative logarithmic value of EC50, a concentration resulting in a half-maximal elevation of cAMP levels, reflecting the potency of the test compound);
Percent control (% CTL)(% cAMP elevation for each test compound concentration normalized based on the GLP-1-induced maximum cAMP response (100% CTL)).

SMILES	Ratio GLP-1/Glucagon [1]	pEC50 [1]	pEC50 [2]	pEC50 [3]	pEC50 [4]
CCCCCCCCCCCCCCCC(=O)N[C@@H](CCC(=O)NCCCC[C@H](NC(=O)[C@H](CO)NC(=O)[C@H](CCC(=O)O)NC(=O)[C@H](CC(C)C)NC(=O)[C@H](Cc1ccc(O)cc1)NC(=O)[C@H](CCCCN)NC(=O)[C@H](CO)NC(=O)[C@H](Cc1ccc(O)cc1)NC(=O)[C@H](CC(=O)O)NC(=O)[C@H](CO)NC(=O)[C@@H](NC(=O)[C@H](Cc1ccccc1)NC(=O)[C@@H](NC(=O)CNC(=O)[C@H](CCC(N)=O)NC(=O)C(C)(C)NC(=O)[C@@H](N)Cc1c[nH]cn1)[C@@H](C)O)[C@@H](C)O)C(=O)N[C@@H](C)C(=O)N[C@@H](C)C(=O)N[C@@H](Cc1c[nH]cn1)C(=O)N[C@@H](CC(=O)O)C(=O)N[C@@H](Cc1ccccc1)C(=O)N[C@H](C(=O)N[C@@H](CCC(=O)O)C(=O)N[C@@H](Cc1c[nH]c2ccccc12)C(=O)N[C@@H](CC(C)C)C(=O)N[C@@H](CCC(=O)O)C(=O)N[C@@H](CO)C(=O)N[C@@H](C)C(N)=O)C(C)C)C(=O)O [Compound 23, H-H-Aib-QGTFTSDYSKYLES-K(Hexadecanoyl-isoGlu)-AAHDFVEWLESA-NH2] (H-H[Aib]QGTFTSDYSKYLESK([γGlu-Palmitoyl])AAHDFVEWLESA-NH2)	0.52	9.89	8.88	9.60	9.51
CCCCCCCCCCCCCCCC(=O)N[C@@H](CCC(=O)NCCCC[C@H](NC(=O)[C@H](CO)NC(=O)[C@H](CCC(=O)O)NC(=O)[C@H](CC(C)C)NC(=O)[C@H](Cc1ccc(O)cc1)NC(=O)[C@H](CCCCN)NC(=O)[C@H](CO)NC(=O)[C@H](Cc1ccc(O)cc1)NC(=O)[C@H](CC(=O)O)NC(=O)[C@H](CO)NC(=O)[C@@H](NC(=O)[C@H](Cc1ccccc1)NC(=O)[C@@H](NC(=O)CNC(=O)[C@H](CCC(N)=O)NC(=O)C(C)(C)NC(=O)[C@@H](N)Cc1c[nH]cn1)[C@@H](C)O)[C@@H](C)O)C(=O)N[C@@H](C)C(=O)N[C@@H](C)C(=O)N[C@@H](CCC(=O)O)C(=O)N[C@@H](CC(=O)O)C(=O)N[C@@H](Cc1ccccc1)C(=O)N[C@H](C(=O)N[C@@H](CCC(=O)O)C(=O)N[C@@H](Cc1c[nH]c2ccccc12)C(=O)N[C@@H](CC(C)C)C(=O)N[C@@H](CCC(=O)O)C(=O)N[C@@H](CO)C(=O)N[C@@H](C)C(N)=O)C(C)C)C(=O)O [Compound 24, H-H-Aib-QGTFTSDYSKYLES-K(Hexadecanoyl-isoGlu)-AAEDFVEWLESA-NH2] (H-H[Aib]QGTFTSDYSKYLESK([γGlu-Palmitoyl])AAEDFVEWLESA-NH2)	0.12	9.96	8.21	9.04	9.48
CCCCCCCCCCCCCCCC(=O)N[C@@H](CCC(=O)NCCCC[C@H](NC(=O)[C@H](CCC(=O)O)NC(=O)[C@H](CCC(=O)O)NC(=O)[C@H](CC(C)C)NC(=O)[C@H](Cc1ccc(O)cc1)NC(=O)[C@H](CCCCN)NC(=O)[C@H](CO)NC(=O)[C@H](Cc1ccc(O)cc1)NC(=O)[C@H](CC(=O)O)NC(=O)[C@H](CO)NC(=O)[C@@H](NC(=O)[C@H](Cc1ccccc1)NC(=O)[C@@H](NC(=O)CNC(=O)[C@H](Cc1c[nH]cn1)NC(=O)[C@H](CO)NC(=O)[C@@H](N)Cc1c[nH]cn1)[C@@H](C)O)[C@@H](C)O)C(=O)N[C@@H](C)C(=O)N[C@@H](C)C(=O)N[C@@H](Cc1c[nH]cn1)C(=O)N[C@@H](CCC(=O)O)C(=O)N[C@@H](Cc1ccccc1)C(=O)N[C@H](C(=O)N[C@@H](CCC(=O)O)C(=O)N[C@@H](Cc1c[nH]c2ccccc12)C(=O)N[C@@H](CC(C)C)C(=O)N[C@@H](CCC(=O)O)C(=O)N[C@@H](CO)C(=O)N[C@@H](C)C(=O)O)[C@@H](C)CC)C(=O)O [Compound 18, H-HSHGTFTSDYSKYLEE-K(Hexadecanoyl-isoGlu)-AAHEFIEWLESA-OH] (H-HSHGTFTSDYSKYLEEK([γGlu-Palmitoyl])AAHEFIEWLESA-OH)	6.2	9.06	9.74	9.85	9.00
